From patent publication US7998493B2, “Cosmetic or dermopharmaceutical compositions which are used to reduce bags and circles under the eyes” (Sederma SAS, priority 2002, dated 2011)
Values belong to the compound of their own block, whether it stands above or below them. Peptide text beside a SMILES is read from it. * marks the point of attachment. Palmitoyl = CCCCCCCCCCCCCCCC(=O)*

Experiments:
H-Val-Trp = test system: T1, H-Val-Trp
T1 sequence: VW

[1] = test system: Normal human keratinocytes and fibroblasts; test: Cell viability by conventional MTT test; type: cell-based; conditions: maximum concentration used (45 ppm)
Description: Normal human keratinocytes and fibroblasts are cultured in a conventional medium in the presence or absence of various concentrations (10-45 ppm) of peptide Pal-GQPR (SEQ ID NO:2). After 24 hours the cells are rinsed in the same medium without Pal-GQPR (SEQ ID NO:2) and, after being subjected to irradiation of 35 mJ/cm^2, the same cells are returned to the culture for 48 hours, without Pal-GQPR (SEQ ID NO:2) or in its presence in the same concentrations as during the initial culture period. Cellular IL-6 is then determined using a standard ELISA test kit.
In parallel with this, to make certain that the concentration reductions observed were not due to cell mortality induced by the peptide itself, viability of the cells was verified by the conventional MTT test.

[2] = biological target: angiotensin converting enzyme (EC 3.4.15.1); test: cell-based or functional assay
[3] = biological target: Converting enzyme (EC 3.4.15.1) (Homo sapiens, UniProt P12821); test: ACE-inhibition test (FAPGG decomposition, ΔOD at 340 nm; derived from Sigma Diagnostics method No. 305-UV); type: biochemical; conditions: for ΔOD: 340 nm, mean of five tests
Chain of Converting enzyme (EC 3.4.15.1) (P12821 30-1306): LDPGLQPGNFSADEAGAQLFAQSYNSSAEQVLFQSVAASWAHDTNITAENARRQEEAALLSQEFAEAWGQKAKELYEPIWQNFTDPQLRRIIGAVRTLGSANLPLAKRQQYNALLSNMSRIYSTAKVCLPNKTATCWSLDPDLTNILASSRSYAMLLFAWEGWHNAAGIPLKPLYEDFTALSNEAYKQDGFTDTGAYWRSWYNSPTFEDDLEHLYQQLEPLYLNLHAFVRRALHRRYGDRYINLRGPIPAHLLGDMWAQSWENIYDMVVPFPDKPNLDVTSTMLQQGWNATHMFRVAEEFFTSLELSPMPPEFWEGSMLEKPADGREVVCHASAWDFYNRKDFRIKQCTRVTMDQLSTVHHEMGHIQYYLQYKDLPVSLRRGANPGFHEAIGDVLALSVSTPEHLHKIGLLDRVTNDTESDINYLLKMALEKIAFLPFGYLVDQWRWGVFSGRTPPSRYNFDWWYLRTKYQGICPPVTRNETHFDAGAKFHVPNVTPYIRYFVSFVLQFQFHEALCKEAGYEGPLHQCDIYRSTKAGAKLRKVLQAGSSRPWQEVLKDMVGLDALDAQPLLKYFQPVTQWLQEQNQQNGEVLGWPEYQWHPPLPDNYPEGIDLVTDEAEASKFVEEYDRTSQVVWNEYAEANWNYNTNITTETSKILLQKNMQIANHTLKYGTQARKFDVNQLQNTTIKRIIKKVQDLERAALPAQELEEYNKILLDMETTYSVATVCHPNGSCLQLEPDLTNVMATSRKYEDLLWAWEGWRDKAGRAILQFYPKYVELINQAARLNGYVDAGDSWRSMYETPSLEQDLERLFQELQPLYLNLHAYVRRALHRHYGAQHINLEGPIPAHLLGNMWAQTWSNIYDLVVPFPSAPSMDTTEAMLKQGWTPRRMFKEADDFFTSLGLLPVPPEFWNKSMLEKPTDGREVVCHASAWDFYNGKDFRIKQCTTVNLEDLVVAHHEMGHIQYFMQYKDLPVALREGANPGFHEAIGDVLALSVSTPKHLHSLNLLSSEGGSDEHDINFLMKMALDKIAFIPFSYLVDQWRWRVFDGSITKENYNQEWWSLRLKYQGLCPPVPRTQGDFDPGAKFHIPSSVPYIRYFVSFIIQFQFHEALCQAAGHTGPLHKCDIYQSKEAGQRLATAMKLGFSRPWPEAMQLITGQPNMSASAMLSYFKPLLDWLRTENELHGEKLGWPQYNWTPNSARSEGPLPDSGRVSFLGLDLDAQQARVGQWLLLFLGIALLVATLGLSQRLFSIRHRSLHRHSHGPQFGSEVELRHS
Excerpt: The test is derived from Sigma Diagnostics method No. 305-UV.
Converting enzyme (EC 3.4.15.1) decomposes synthetic tripeptide FAPGG into FAP+glycylglycine. The change in optical density (ΔOD) at 340 nm is directly proportional to disappearance of the FAPGG, which allows a quantification of the converting enzyme activity.
The inhibiting effect of a compound is investigated according to the same principle, but in the presence of various concentrations of the test compounds.

Compound: angiotensin converting enzyme (EC 3.4.15.1)
ΔOD (340 nm, FAPGG hydrolysis by converting enzyme), peptide at 10 ppm (H-Val-Trp): 0.08 ΔOD
ΔOD (340 nm, FAPGG hydrolysis by converting enzyme), peptide at 50 ppm (H-Val-Trp): 0.018 ΔOD

Compound: CCCCCCCCCCCCCCCC(=O)NCC(=O)N[C@@H](CCC(N)=O)C(=O)N1CCC[C@H]1C(=O)N[C@@H](CCCNC(=N)N)C(=O)O [N-Palmitoyl-Gly-Gln-Pro-Arg] (Palmitoyl-GQPR-OH)
Cytotoxic effect (cell viability, MTT) [1]: does not exert any cytotoxic effect

Inhibition (converting enzyme activity, FAPGG hydrolysis, ΔOD at 340 nm), peptide at 10 ppm [2]: 27.3%
Inhibition (converting enzyme activity, FAPGG hydrolysis, ΔOD at 340 nm), peptide at 50 ppm [2]: 83.4%
Compound: H-Val-Trp (peptide)

Inhibition ([3]; peptide 10 ppm): 27.3%
ΔOD ([3]; peptide 10 ppm): 0.080
Inhibition ([3]; peptide 50 ppm): 83.4%
ΔOD ([3]; peptide 50 ppm): 0.018
Compound: H-Val-Trp
